Source: patent publication US9428483B2, “Prodrug of fluorine-containing amino acid” (TAISHO PHARMACEUTICAL CO., LTD., priority 2012, dated 2016)

Key:
[1] = Test 5: plasma concentrations of Compound (IV) in monkey after oral administration; assay type: in vivo, cynomolgus monkeys
Method: A test to measure the plasma concentration of Compound (IV) upon oral administration of Compound (IV) and Inventive Compounds (I) was conducted in accordance with the following method.
Compound (IV) or Inventive Compounds (I) was orally administered to male cynomolgus monkeys (fed condition) at a dose of 4.92 μmol/kg (vehicle: 0.5% methyl cellulose (MC) solution; administered at a dose of 5 mL/kg).
Two and 4 hours after the oral administration, approximately 0.7 mL of blood was taken from the cephalic vein (anticoagulant: EDTA-2K). The plasma recovered by centrifugation (3000 rpm, 4° C.×10 min) was stored frozen at −80° C. until use for analysis. In the case of analysis, 50 μL of the plasma sample was thawed under cooling with ice and after adding 200 μL of a liquid acetonitrile/methanol mixture containing an internal standard substance, the resulting mixture was stirred and centrifuged (4° C.×10 min); the resulting supernatant was subjected to LC-MS/MS analysis. The lower quantitation limits of Inventive Compounds (I) and Compound (IV) were 1 ng/mL and 3 ng/mL, respectively.

mGluR3 = mGluR3 (Homo sapiens, UniProt Q14832); conditions: read-out: EC50 value for the agonistic activity for mGluR3; cited from earlier work
Chain of mGluR3 (Q14832 23-879): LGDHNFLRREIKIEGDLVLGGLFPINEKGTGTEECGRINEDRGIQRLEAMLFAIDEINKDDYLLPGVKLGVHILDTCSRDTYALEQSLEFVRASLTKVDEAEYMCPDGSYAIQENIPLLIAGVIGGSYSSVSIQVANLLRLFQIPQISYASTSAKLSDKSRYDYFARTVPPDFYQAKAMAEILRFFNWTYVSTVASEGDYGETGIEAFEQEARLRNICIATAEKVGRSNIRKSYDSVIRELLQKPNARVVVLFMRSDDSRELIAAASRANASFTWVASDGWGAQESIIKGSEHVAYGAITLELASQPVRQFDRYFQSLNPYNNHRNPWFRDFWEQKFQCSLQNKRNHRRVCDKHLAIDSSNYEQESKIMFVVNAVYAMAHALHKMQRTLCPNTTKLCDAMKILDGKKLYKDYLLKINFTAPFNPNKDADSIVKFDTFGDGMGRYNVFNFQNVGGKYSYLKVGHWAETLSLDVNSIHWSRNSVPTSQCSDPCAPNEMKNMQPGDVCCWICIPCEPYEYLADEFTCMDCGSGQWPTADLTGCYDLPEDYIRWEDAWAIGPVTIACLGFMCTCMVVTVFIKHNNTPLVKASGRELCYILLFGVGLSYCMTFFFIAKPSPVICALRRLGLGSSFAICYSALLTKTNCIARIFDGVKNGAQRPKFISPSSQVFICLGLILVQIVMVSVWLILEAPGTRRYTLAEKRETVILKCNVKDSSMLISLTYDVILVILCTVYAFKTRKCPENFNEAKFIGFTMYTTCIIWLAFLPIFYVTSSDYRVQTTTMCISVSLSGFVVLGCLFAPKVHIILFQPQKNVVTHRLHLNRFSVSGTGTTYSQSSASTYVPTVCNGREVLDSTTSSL

schizophrenia model rat = conditions: cited from earlier work
[2] = system: phencyclidine-elicited head-weaving behavior; conditions: schizophrenia model; cited from earlier work
[3] = system: conditioned avoidance response; conditions: schizophrenia model; cited from earlier work
[4] = Test 1: Solution Stability Test; assay type: physicochemical; conditions: 37° C., one hour, about 50 μg/mL; for Compound's percent residue (%) pH 6.5: 20 mM phosphate buffer (pH 6.5); for Compound's percent residue (%) pH 1.2: hydrochloric acid solution (pH 1.2)
Method: Inventive Compounds (I) were tested for their stability in solutions simulating the gastric and small intestine's digestive fluids identified below.
The percent residues of Inventive Compounds (I) in a hydrochloric acid solution (pH 1.2) and 20 mM phosphate buffer (pH 6.5) were measured in accordance with the following test method.
A test compound was dissolved in a hydrochloric acid solution (pH 1.2) containing hydrochloric acid and sodium chloride or a 20 mM phosphate buffer (pH 6.5) containing disodium hydrogenphosphate, sodium dihydrogenphosphate and sodium chloride to prepare a solution with a concentration of about 50 μg/mL (near the solubility if undissolved). The solution was incubated at 37° C. for an hour and the compound's concentration before and after the incubation was quantified by high-performance liquid chromatography to calculate the percent residue of the compound.

[5] = Test 4: percent generation of Compound (IV) in human small intestine S9; assay type: in vitro ADME; conditions: 3 μM, 1 mg protein/mL, 37° C. x 1 hr
Method: A test to determine the percent generation of Compound (IV) in human intestine S9 was conducted for Inventive Compounds (I) in accordance with the following method.
Inventive Compounds were incubated (37° C.×1 hr) in a 0.1 M phosphate buffer (pH 7.4) together with a human intestine S9 fraction (Xenotech, LLC/CP710571/Lot, 710571) in the presence of Mg^2+ (5 mM), Ca^2+ (5 mM) and Zn^2+ (0.1 mM). The final concentrations of each Inventive Compound and the small intestine S9 protein were adjusted to 3 μM and 1 mg protein/mL, respectively. To the incubated reaction mixture, 3 volumes of DMSO was added, followed by stirring and centrifugation at 3000 rpm (4° C.×10 min). The resulting supernatant was subjected to analysis by a liquid chromatography-tandem mass spectrometry (LC-MS/MS) system. The lower quantitation limit was 0.3 μM for both Inventive Compounds (I) and Compound (IV).
The LC-MS/MS system used in the measurement was equipped with Waters XBridge Amide (3.5 μm, 50 mm×4.6 mm I.D.), Waters Atlantis T3 (3 μm, 50 mm×4.6 mm I.D.), or Shimadzu Shim-pack XR-ODS (2.2 μm, 30 mm×3.0 mm I.D.) as a separation column. The mobile phase was a 0.1% formic acid/acetonitrile solution or a 0.1% formic acid/methanol solution (flow rate: 0.7-1.3 mL/min) and the analyte was eluted in a linear gradient mode. MS/MS detection of Inventive Compounds (I) and Compound (IV) was performed using an API4000 or Triple quad 5500 system with TurbolonSpray interface (both being products of AB SCIEX) in either a positive or negative ion detection mode. The percent generation of Compound (IV) in human small intestine S9 is shown in the following Table 6 with respect to Inventive Compounds.

[6] = Test 2: generation of Compound (IV) in human hepatic microsomes; assay type: in vitro ADME; conditions: human hepatic microsome
Method: A test to determine the percent generation of Compound (IV) in human and monkey hepatic microsomes was conducted for Inventive Compounds (I) in accordance with the following method. As a control for comparison, an ethyl ester form of Compound (IV) (Reference Example 1) was used.
A test compound was incubated (37° C.×15 min) in a 0.250 M phosphate buffer (pH 7.4) containing 69 mM KCl, together with a human hepatic microsome (Ms) fraction (Xenotech/H630B/lot, 0810472) or a monkey Ms fraction (BD Biosciences/452413/lot, 94518) in the presence of a NADPH generation system (0.16 mM NADP^+, 2.4 mM MgCl2, 1.5 mM glucose-6-phosphate). The final concentrations of the test compound and hepatic Ms protein were adjusted to 3 μM and 1 mg protein/mL, respectively. To the incubated reaction mixture, 2 volumes of DMSO was added, followed by stirring and centrifugation at 3000 rpm (4° C.×10 min) The resulting supernatant was subjected to analysis by a liquid chromatography-tandem mass spectrometry (LC-MS/MS) system. The lower quantitation limit was 0.3 μM for both the test compound and Compound (IV).

| SMILES | Compound's percent residue (%) pH 6.5 [4] | Compound's percent residue (%) pH 1.2 [4] | Percent generation (%) of Compound IV in human small intestine S9 [5] | further results |
| --- | --- | --- | --- | --- |
| C[C@H](OC(=O)[C@H]1[C@@H]2C[C@H](F)[C@@](N)(C(=O)O)[C@@H]21)OC(=O)C12CC3CC(CC(C3)C1)C2.Cl | – | – | – | melting point: 164 °C (dec.) |
| N[C@]1(C(=O)O)[C@H]2[C@@H](C[C@@H]1F)[C@@H]2C(=O)O [Compound IV, (1S,2S,3S,5R,6S)-2-amino-3-fluorobicyclo[3.1.0]hexane-2,6-dicarboxylic acid] | – | – | – | oral absorbability ([1]; in monkeys): poor; EC50 (mGluR3): 45.4 nM; ED50 value, suppressing phencyclidine-elicited hyperactivity (schizophrenia model rat): 5.1 mg/kg; effect on phencyclidine-elicited head-weaving behavior [2]: has the effect of suppressing; effect on conditioned avoidance response [3]: has the effect of suppressing |
| CSCC[C@H](N)C(=O)N[C@]1(C(=O)O)[C@H]2[C@@H](C[C@@H]1F)[C@@H]2C(=O)O.Cl [Ex. D-1, (1S,2S,3S,5R,6S)-2-((S)-2-amino-4-(methylthio)butanamide)-3-fluorobicyclo[3.1.0]hexane-2,6-dicarboxylic acid hydrochloride] | 102% | 103% | 20.9% | Concentration (ng/mL) of Compound IV in monkey plasma, After 2 hr ([1]; oral 4.92 μmol/kg, male cynomolgus monkeys (fed), 2 hr): 141 ng/mL; Concentration (ng/mL) of Compound IV in monkey plasma, After 4 hr ([1]; oral 4.92 μmol/kg, male cynomolgus monkeys (fed), 4 hr): 128 ng/mL |
| Cl.NCC(=O)N[C@]1(C(=O)O)[C@H]2[C@@H](C[C@@H]1F)[C@@H]2C(=O)O [Ex. D-3, (1S,2S,3S,5R,6S)-2-(2-aminoacetamide)-3-fluorobicyclo[3.1.0]hexane-2,6-dicarboxylic acid hydrochloride] | 102% | 100% | <10% | – |
| CCC[C@H](N)C(=O)N[C@]1(C(=O)O)[C@H]2[C@@H](C[C@@H]1F)[C@@H]2C(=O)O.Cl [Ex. D-4, (1S,2S,3S,5R,6S)-2-((S)-2-amino-4-methylbutanamide)-3-fluorobicyclo[3.1.0]hexane-2,6-dicarboxylic acid hydrochloride] | 100% | 101% | <10% | – |
| CC[C@H](C)[C@H](N)C(=O)N[C@]1(C(=O)O)[C@H]2[C@@H](C[C@@H]1F)[C@@H]2C(=O)O.Cl [Ex. D-6, (1S,2S,3S,5R,6S)-2-((2S,3S)-2-amino-3-methylpentanamide)-3-fluorobicyclo[3.1.0]hexane-2,6-dicarboxylic acid hydrochloride] | 101% | 101% | <10% | – |
| CC(C)C[C@H](N)C(=O)N[C@]1(C(=O)O)[C@H]2[C@@H](C[C@@H]1F)[C@@H]2C(=O)O.Cl [Ex. D-7, (1S,2S,3S,5R,6S)-2-((S)-2-amino-4-methylpentanamide)-3-fluorobicyclo[3.1.0]hexane-2,6-dicarboxylic acid hydrochloride] | 102% | 99% | 11.7% | – |
| CCOC(=O)[C@H]1[C@@H]2C[C@H](F)[C@@](N)(C(=O)O)[C@@H]21 [Ref. Ex. 1, (1S,2S,3S,5R,6S)-2-amino-6-(ethoxycarbonyl)-3-fluorobicyclo[3.1.0]hexane-2-carboxylic acid] | – | – | – | test compound remaining unchanged [6]: approximately 100% |
